Results from patent US11820766B2, “Monoacylglycerol lipase modulators” (Janssen Pharmaceutica NV, priority 2018, dated 2023).

target: T1, human MGL from HeLa cells (Homo sapiens, UniProt Q99685); test: In vitro MGL activity assay: [glycerol-1,3-3H]-oleyl glycerol cleavage by MGL from HeLa cells; type: biochemical; conditions: 300 nM [Glycerol-1,3-3H]-oleyl glycerol, one hour incubation
T1 construct: combining endogenously expressed MGL from HeLa cells with test compounds; endogenous in cells; host or cells: HeLa cells / cell homogenates
T1 sequence (Q99685 1-303): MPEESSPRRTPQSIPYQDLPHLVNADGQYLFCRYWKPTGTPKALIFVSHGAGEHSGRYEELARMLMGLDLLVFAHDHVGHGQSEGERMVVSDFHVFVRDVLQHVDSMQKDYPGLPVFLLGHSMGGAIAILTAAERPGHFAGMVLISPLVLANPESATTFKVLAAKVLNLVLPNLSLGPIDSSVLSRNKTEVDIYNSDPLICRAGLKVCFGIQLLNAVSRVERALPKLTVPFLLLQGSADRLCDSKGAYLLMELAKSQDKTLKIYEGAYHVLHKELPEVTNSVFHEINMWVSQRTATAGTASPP
Description: MGL is the predominant hydrolase in HeLa cells/cell homogenates.

Row | Compound | IC50
1 | C[C@H]1c2nn(C)c(-c3cc(F)c(F)c(F)c3)c2CCN1C(=O)c1ccc2c(cnn2C)c1 [Example 211, (S)-(2,7-Dimethyl-3-(3,4,5-trifluorophenyl)-2,4,5,7-tetrahydro-6H-pyrazolo[3,4-c]pyridin-6-yl)(1-methyl-1H-indazol-5-yl)methanone] | 72.2 nM
2 | C[C@H]1c2nn(C)c(-c3cc(F)c(F)c(F)c3)c2CCN1C(=O)c1c[nH]c2ccncc12 [Example 218, (S)-(2,7-Dimethyl-3-(3,4,5-trifluorophenyl)-2,4,5,7-tetrahydro-6H-pyrazolo[3,4-c]pyridin-6-yl)(1H-pyrrolo[3,2-c]pyridin-3-yl)methanone] | 35.2 nM
3 | C[C@H]1c2nn(C)c(-c3cc(F)c(F)c(F)c3)c2CCN1C(=O)c1cn(C)c2cccnc12 [Example 220, (S)-(2,7-Dimethyl-3-(3,4,5-trifluorophenyl)-2,4,5,7-tetrahydro-6H-pyrazolo[3,4-c]pyridin-6-yl)(1-methyl-1H-pyrrolo[3,2-b]pyridin-3-yl)methanone] | 130 nM
4 | C[C@H]1c2nn(C)c(-c3cc(F)c(F)c(F)c3)c2CCN1C(=O)c1cn(C)c2cnccc12 [Example 221, (S)-(2,7-Dimethyl-3-(3,4,5-trifluorophenyl)-2,4,5,7-tetrahydro-6H-pyrazolo[3,4-c]pyridin-6-yl)(1-methyl-1H-pyrrolo[2,3-c]pyridin-3-yl)methanone] | 78.9 nM
5 | C[C@H]1c2nn(C)c(-c3cc(F)c(F)c(F)c3)c2CCN1C(=O)c1cc2cccnc2n1C [Example 222, (S)-(2,7-Dimethyl-3-(3,4,5-trifluorophenyl)-2,4,5,7-tetrahydro-6H-pyrazolo[3,4-c]pyridin-6-yl)(1-methyl-1H-pyrrolo[2,3-b]pyridin-2-yl)methanone] | 64.7 nM

Compounds with a lower IC50, results first:

Row | IC50 | Compound
6 | 28.6 nM | C[C@H]1c2nn(C)c(-c3cc(F)c(F)c(F)c3)c2CCN1C(=O)c1cn(C)c2ccncc12 [Example 219, (S)-(2,7-Dimethyl-3-(3,4,5-trifluorophenyl)-2,4,5,7-tetrahydro-6H-pyrazolo[3,4-c]pyridin-6-yl)(1-methyl-1H-pyrrolo[3,2-c]pyridin-3-yl)methanone]
7 | 26.2 nM | C[C@H]1c2nn(C)c(-c3cc(F)c(F)c(F)c3)c2CCN1C(=O)c1nccc2[nH]ccc12 [Example 216, (S)-(2,7-Dimethyl-3-(3,4,5-trifluorophenyl)-2,4,5,7-tetrahydro-6H-pyrazolo[3,4-c]pyridin-6-yl)(1H-pyrrolo[3,2-c]pyridin-4-yl)methanone]
8 | 25.6 nM | C[C@H]1c2nn(C)c(-c3cc(F)c(F)c(F)c3)c2CCN1C(=O)c1cnc2ccccn12 [Example 213, (S)-(2,7-Dimethyl-3-(3,4,5-trifluorophenyl)-2,4,5,7-tetrahydro-6H-pyrazolo[3,4-c]pyridin-6-yl)(imidazo[1,2-a]pyridin-3-yl)methanone]
9 | 23.5 nM | C[C@H]1c2nn(C)c(-c3cc(F)c(F)c(F)c3)c2CCN1C(=O)c1nccc2occc12 [Example 214, (S)-(2,7-Dimethyl-3-(3,4,5-trifluorophenyl)-2,4,5,7-tetrahydro-6H-pyrazolo[3,4-c]pyridin-6-yl)(furo[3,2-c]pyridin-4-yl)methanone]
10 | 5.56 nM | C[C@H]1c2nn(C)c(-c3cc(F)c(F)c(F)c3)c2CCN1C(=O)c1cccn2cncc12 [Example 212, (S)-(2,7-Dimethyl-3-(3,4,5-trifluorophenyl)-2,4,5,7-tetrahydro-6H-pyrazolo[3,4-c]pyridin-6-yl)(imidazo[1,5-a]pyridin-8-yl)methanone]
11 | 5.07 nM | C[C@H]1c2nn(C)c(-c3cc(F)c(F)c(F)c3)c2CCN1C(=O)c1nccc2c1ccn2C [Example 217, (S)-(2,7-Dimethyl-3-(3,4,5-trifluorophenyl)-2,4,5,7-tetrahydro-6H-pyrazolo[3,4-c]pyridin-6-yl)(1-methyl-1H-pyrrolo[3,2-c]pyridin-4-yl)methanone]
12 | 3.17 nM | C[C@H]1c2nn(C)c(-c3cc(F)c(F)c(F)c3)c2CCN1C(=O)c1noc2ccccc12 [Example 215, (S)-Benzo[d]isoxazol-3-yl(2,7-dimethyl-3-(3,4,5-trifluorophenyl)-2,4,5,7-tetrahydro-6H-pyrazolo[3,4-c]pyridin-6-yl)methanone]
